Measured values taken from ChEMBL document CHEMBL4257559, “Protective effects of astragaloside IV against hypoxic pulmonary hypertension” (Medchemcomm, 2018).
Calls of active or inactive are those of the source. No cut-off for these calls is given here.

Columns and labels:
[1] = Cmax in chronic hypoxia-induced pulmonary hypertension model of Sprague-Dawley rat at 10 mg/kg, ip after 30 to 600 mins by HPLC analysis; assay type: ADME, organism-based; design: dose 10 mg/kg, route intraperitoneal; conditions: in vivo
Pulmonary artery [2] = test: Protective effect against chronic hypoxia-induced pulmonary hypertension in Sprague-Dawley rat pulmonary arterial ring assessed as increase in relaxation of pulmonary artery ring at 50 uM treated after phenylephrine-induced vasoconstriction measured at 10 mins relative to control; assay type: functional; design: scale not given: the % may be the effect or the level left
Rattus norvegicus [3] = species: Rattus norvegicus; test: Inhibition of hypoxia-induced proliferation of Sprague-Dawley rat PASMC at 50 uM preincubated for 10 mins followed by hypoxia induction and measured after 24 hrs by CCK8 assay; assay type: functional
[4] = Cmax in chronic hypoxia-induced pulmonary hypertension model of Sprague-Dawley rat at 50 mg/kg, ip after 30 to 600 mins by HPLC analysis; assay type: ADME, organism-based; design: dose 50 mg/kg, route intraperitoneal; conditions: in vivo
Rattus norvegicus [5] = test: (§1) Protective effect against chronic hypoxia-induced pulmonary hypertension in Sprague-Dawley rat assessed as decrease in index of right ventricular hypertrophy by measuring ratio of right ventricular/(left ventricular + septum) weight at 10 mg/kg, ip administered every other day at 10 mins prior to induction of hypoxia and measured after 2 weeks; assay type: functional, organism-based
Rattus norvegicus [6] = test: Protective effect against chronic hypoxia-induced pulmonary hypertension in Sprague-Dawley rat assessed as decrease in mean pulmonary arterial pressure at 10 mg/kg, ip administered every other day at 10 mins prior to induction of hypoxia and measured after 2 weeks; assay type: functional, organism-based
Rattus norvegicus [7] = species: Rattus norvegicus; test: Inhibition of hypoxia-induced proliferation of Sprague-Dawley rat PASMC at 10 uM preincubated for 10 mins followed by hypoxia induction and measured after 24 hrs by CCK8 assay; assay type: functional
[8] = Tmax in chronic hypoxia-induced pulmonary hypertension model of Sprague-Dawley rat at 10 mg/kg, ip after 30 to 600 mins by HPLC analysis; assay type: ADME, organism-based; conditions: in vivo
Rattus norvegicus [9] = test: Protective effect against chronic hypoxia-induced pulmonary hypertension in Sprague-Dawley rat assessed as decrease in serum angiotensin-2 levels at 50 mg/kg, ip administered every other day at 10 mins prior to induction of hypoxia and measured after 2 weeks by ELISA; assay type: functional, organism-based
Rattus norvegicus [10] = test: Protective effect against chronic hypoxia-induced pulmonary hypertension in Sprague-Dawley rat assessed as decrease in mean pulmonary arterial pressure at 50 mg/kg, ip administered every other day at 10 mins prior to induction of hypoxia and measured after 2 weeks; assay type: functional, organism-based
Pulmonary artery [11] = test: Protective effect against chronic hypoxia-induced pulmonary hypertension in Sprague-Dawley rat pulmonary arterial ring assessed as increase in relaxation of pulmonary artery ring at 10 uM treated after phenylephrine-induced vasoconstriction measured at 1 min; assay type: functional, tissue-based
Rattus norvegicus [12] = test: Protective effect against chronic hypoxia-induced pulmonary hypertension in Sprague-Dawley rat assessed as decrease in serum endothelin levels at 10 mg/kg, ip administered every other day at 10 mins prior to induction of hypoxia and measured after 2 weeks by ELISA; assay type: functional, organism-based
Pulmonary artery [13] = test: Protective effect against chronic hypoxia-induced pulmonary hypertension in Sprague-Dawley rat pulmonary arterial ring assessed as increase in relaxation of pulmonary artery ring at 10 uM treated after phenylephrine-induced vasoconstriction measured at 10 mins relative to control; assay type: functional; design: scale not given: the % may be the effect or the level left
Rattus norvegicus [14] = test: Protective effect against chronic hypoxia-induced pulmonary hypertension in Sprague-Dawley rat assessed as decrease in serum angiotensin-2 levels at 10 mg/kg, ip administered every other day at 10 mins prior to induction of hypoxia and measured after 2 weeks by ELISA; assay type: functional, organism-based
Rattus norvegicus [15] = test: as §1, with “weight at 50 mg/kg, ip” for “weight at 10 mg/kg, ip”; assay type: functional, organism-based
[16] = Tmax in chronic hypoxia-induced pulmonary hypertension model of Sprague-Dawley rat at 50 mg/kg, ip after 30 to 600 mins by HPLC analysis; assay type: ADME, organism-based; conditions: in vivo
Rattus norvegicus [17] = test: Protective effect against chronic hypoxia-induced pulmonary hypertension in ip dosed Sprague-Dawley rat assessed as decrease in serum TNF-alpha levels administered every other day at 10 mins prior to induction of hypoxia and measured after 2 weeks by ELISA; assay type: functional, organism-based
Rattus norvegicus [18] = test: Protective effect against chronic hypoxia-induced pulmonary hypertension in Sprague-Dawley rat assessed as decrease in serum endothelin levels at 50 mg/kg, ip administered every other day at 10 mins prior to induction of hypoxia and measured after 2 weeks by ELISA; assay type: functional, organism-based
Rattus norvegicus [19] = test: Protective effect against chronic hypoxia-induced pulmonary hypertension in Sprague-Dawley rat assessed as decrease in right ventricular pressure at 10 mg/kg, ip administered every other day at 10 mins prior to induction of hypoxia and measured after 2 weeks; assay type: functional, organism-based
Rattus norvegicus [20] = test: Protective effect against chronic hypoxia-induced pulmonary hypertension in ip dosed Sprague-Dawley rat assessed as decrease in serum IL-6 levels administered every other day at 10 mins prior to induction of hypoxia and measured after 2 weeks by ELISA; assay type: functional, organism-based
Pulmonary artery [21] = test: Protective effect against chronic hypoxia-induced pulmonary hypertension in Sprague-Dawley rat pulmonary arterial ring assessed as increase in relaxation of pulmonary artery ring at 50 uM treated after phenylephrine-induced vasoconstriction measured at 1 min; assay type: functional, tissue-based
Rattus norvegicus [22] = test: Protective effect against chronic hypoxia-induced pulmonary hypertension in Sprague-Dawley rat assessed as decrease in right ventricular pressure at 50 mg/kg, ip administered every other day at 10 mins prior to induction of hypoxia and measured after 2 weeks; assay type: functional, organism-based

Compound: CC(C)(O)[C@@H]1CC[C@](C)([C@H]2[C@@H](O)C[C@@]3(C)[C@@H]4C[C@H](O[C@@H]5O[C@H](CO)[C@@H](O)[C@H](O)[C@H]5O)[C@H]5C(C)(C)[C@@H](O[C@@H]6OC[C@@H](O)[C@H](O)[C@H]6O)CC[C@@]56C[C@@]46CC[C@]23C)O1
- Cmax [1]: 7270 ng/mL
- Activity (Pulmonary artery [2]): 21.194%
- inhibition (Rattus norvegicus [3]): Active
- Cmax [4]: 25200 ng/mL
- Activity (Rattus norvegicus [5]): inactive
- Activity (Rattus norvegicus [6]): inactive
- inhibition (Rattus norvegicus [7]): inactive
- Tmax [8]: 1 h
- Activity (Rattus norvegicus [9]): Active
- Activity (Rattus norvegicus [10]): inactive
- Activity (Pulmonary artery [11]): Active
- Activity (Rattus norvegicus [12]): inactive
- Activity (Pulmonary artery [13]): 9.42%
- Activity (Rattus norvegicus [14]): inactive
- Activity (Rattus norvegicus [15]): inactive
- Tmax [16]: 1 h
- Activity (Rattus norvegicus [17]): Dose-dependent effect
- Activity (Rattus norvegicus [18]): Active
- Activity (Rattus norvegicus [19]): inactive
- Activity (Rattus norvegicus [20]): Dose-dependent effect
- Activity (Pulmonary artery [21]): Active
- Activity (Rattus norvegicus [22]): inactive
